Values quoted from earlier work, collected in US6794370B2, “Method for treating cancer using camptothecin derivatives and 5-fluorouracil” (priority 1999, dated 2004).
Where two headings read alike, the source gives them in different places.

Columns and labels:
[1] = system: colorectal cancer; conditions: metastatic disease, compared to no antitumour therapy
[2] = system: colorectal cancer
[3] = system: metastatic colorectal cancer; conditions: 125 mg/m^2 intravenously
[4] = system: colorectal cancer; conditions: compared with supportive care only

Row | Molecule | survival time [1] | median survival time ([2]; bolus administration) | response rate ([2]; bolus administration) | median survival time ([2]; infusional administration) | response rate ([2]; infusional administration) | median survival ([3]; first of two studies) | response rate ([3]; first of two studies) | median survival ([3]; second of two studies) | response rate ([3]; second of two studies) | quality of life [4] | survival [4]
1 | O=c1[nH]cc(F)c(=O)[nH]1 [5-FU, 5-fluorouracil] | 11 months | 11.3 months | 14% | 12.1 months | 22% |  |  |  |  |  | 
2 | Irinotecan [CPT-11] |  |  |  |  |  | 12.1 months | 32% | 11.8 months | 26% | better quality of life | longer survival
